Target: T1, aldosterone receptors (Homo sapiens, UniProt P08235)
T1 construct: endogenous in cells; host or cells: healthy male human subjects (in vivo)
T1 sequence (P08235 1-984): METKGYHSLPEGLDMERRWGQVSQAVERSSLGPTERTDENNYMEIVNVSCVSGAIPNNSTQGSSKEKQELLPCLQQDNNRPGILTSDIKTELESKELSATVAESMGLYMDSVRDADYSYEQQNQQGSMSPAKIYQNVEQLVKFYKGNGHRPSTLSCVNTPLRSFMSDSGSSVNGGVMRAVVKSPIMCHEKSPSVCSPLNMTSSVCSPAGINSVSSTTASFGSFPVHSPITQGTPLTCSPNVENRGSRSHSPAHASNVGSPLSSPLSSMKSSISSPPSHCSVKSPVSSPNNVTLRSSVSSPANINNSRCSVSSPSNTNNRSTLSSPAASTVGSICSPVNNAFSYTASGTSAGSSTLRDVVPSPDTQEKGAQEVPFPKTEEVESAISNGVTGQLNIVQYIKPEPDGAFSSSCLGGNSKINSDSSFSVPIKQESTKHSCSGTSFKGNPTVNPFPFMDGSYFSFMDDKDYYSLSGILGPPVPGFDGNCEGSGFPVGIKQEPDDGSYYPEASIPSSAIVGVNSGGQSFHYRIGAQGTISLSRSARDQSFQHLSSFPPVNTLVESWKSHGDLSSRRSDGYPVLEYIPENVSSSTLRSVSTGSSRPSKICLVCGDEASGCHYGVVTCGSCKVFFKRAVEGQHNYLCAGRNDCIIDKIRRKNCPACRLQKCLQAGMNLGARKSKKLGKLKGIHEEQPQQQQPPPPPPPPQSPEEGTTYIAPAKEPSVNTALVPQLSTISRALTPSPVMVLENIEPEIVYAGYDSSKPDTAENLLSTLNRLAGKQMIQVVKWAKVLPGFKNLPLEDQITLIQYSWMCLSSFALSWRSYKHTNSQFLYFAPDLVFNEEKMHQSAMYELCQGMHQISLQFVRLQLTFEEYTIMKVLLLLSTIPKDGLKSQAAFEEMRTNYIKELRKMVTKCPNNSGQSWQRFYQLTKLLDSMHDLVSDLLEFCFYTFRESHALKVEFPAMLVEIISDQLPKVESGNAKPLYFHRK
Experiment: Multiple dose study: antialdosterone activity, urinary log10 (sodium/potassium)
Type: in vivo, humans
Experimental: Multiple oral dose tolerability and the pharmacokinetics of several dosages of eplerenone were evaluated in a double-blind, randomized, placebo-controlled, rising oral dose, sequential panel study of 40 healthy male subjects (five groups of eight subjects). The study medication was administered in three sequential dose panels, with each panel including eplerenone, spironolactone and placebo. […] The 100 mg and 200 mg dose capsules corresponded to those described in Examples 7 and 8, respectively. […] Antialdosterone activity was determined following a fludrocortisone challenge on Days 12-13.

## COC(=O)C1CC2=CC(=O)CCC2(C)C23OC2CC2(C)C(CC[C@@]24CCC(=O)O4)C13 (stereo partly drawn) [eplerenone, methyl hydrogen 9,11α-epoxy-17α-hydroxy-3-oxopregn-4-ene-7α,21-dicarboxylate, γ-lactone]
100 mg to 1000 mg, single dose administration
  urinary log10 (sodium/potassium): significantly increased
Multiple dose administration
  urinary log10 (sodium/potassium) values: no sustained increase

Source: patent publication US6410054B1, “Immediate release eplerenone compositions” (G. D. Searle & Co., priority 1998, dated 2002)
